# Measurements: ChEMBL document CHEMBL5465560, “Selectivity Literature for EUbOPEN Chemogenomic Library” (2024)
# What was measured:
# [1] = test system: T1, Receptor-type tyrosine-protein kinase FLT3 (Homo sapiens), P36888 [N841I]; assay: Selectivity interaction (KinomeScan (DiscoverX)) EUB0000595a FLT3; settings: at 10 µM
# T1 sequence (whole entry): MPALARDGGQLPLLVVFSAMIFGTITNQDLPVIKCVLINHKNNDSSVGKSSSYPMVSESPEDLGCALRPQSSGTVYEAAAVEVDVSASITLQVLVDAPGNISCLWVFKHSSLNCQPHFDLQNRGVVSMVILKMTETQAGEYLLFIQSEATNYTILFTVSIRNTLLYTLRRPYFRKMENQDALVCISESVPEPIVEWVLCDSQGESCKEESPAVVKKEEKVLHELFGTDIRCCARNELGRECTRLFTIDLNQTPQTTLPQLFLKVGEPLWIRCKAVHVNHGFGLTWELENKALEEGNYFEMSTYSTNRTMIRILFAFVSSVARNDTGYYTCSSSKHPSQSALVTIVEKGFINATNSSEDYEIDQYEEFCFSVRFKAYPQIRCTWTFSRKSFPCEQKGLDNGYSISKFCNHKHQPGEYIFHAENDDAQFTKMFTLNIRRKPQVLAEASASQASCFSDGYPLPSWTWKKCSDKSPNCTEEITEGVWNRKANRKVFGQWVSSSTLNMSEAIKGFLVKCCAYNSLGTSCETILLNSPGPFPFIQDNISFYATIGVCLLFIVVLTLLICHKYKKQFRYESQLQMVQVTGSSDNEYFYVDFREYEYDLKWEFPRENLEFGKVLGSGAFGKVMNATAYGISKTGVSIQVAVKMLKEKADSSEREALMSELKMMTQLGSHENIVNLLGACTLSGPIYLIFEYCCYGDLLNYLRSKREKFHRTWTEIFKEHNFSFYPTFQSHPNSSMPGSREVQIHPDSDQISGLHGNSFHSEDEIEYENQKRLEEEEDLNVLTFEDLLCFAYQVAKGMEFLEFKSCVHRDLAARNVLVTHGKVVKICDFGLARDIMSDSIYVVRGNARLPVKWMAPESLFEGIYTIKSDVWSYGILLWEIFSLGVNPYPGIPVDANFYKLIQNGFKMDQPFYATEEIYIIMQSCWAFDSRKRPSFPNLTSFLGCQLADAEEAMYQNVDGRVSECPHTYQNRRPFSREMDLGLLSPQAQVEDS
# [2] = target: Cyclin-dependent kinase 5/CDK5 activator 1 (Homo sapiens) (UniProt Q00535+Q15078); assay: Selectivity interaction (Kinase panel (Z-LYTE Assay)) EUB0001632a CDK5; format: protein-complex assay; settings: at 10 µM
# [3] = target: T2, Mitogen-activated protein kinase 12 (Homo sapiens) (UniProt P53778); assay: Selectivity interaction (Millipore kinase profiler) EUB0000124b MAPK12; settings: at 10 µM
# T2 sequence (whole entry): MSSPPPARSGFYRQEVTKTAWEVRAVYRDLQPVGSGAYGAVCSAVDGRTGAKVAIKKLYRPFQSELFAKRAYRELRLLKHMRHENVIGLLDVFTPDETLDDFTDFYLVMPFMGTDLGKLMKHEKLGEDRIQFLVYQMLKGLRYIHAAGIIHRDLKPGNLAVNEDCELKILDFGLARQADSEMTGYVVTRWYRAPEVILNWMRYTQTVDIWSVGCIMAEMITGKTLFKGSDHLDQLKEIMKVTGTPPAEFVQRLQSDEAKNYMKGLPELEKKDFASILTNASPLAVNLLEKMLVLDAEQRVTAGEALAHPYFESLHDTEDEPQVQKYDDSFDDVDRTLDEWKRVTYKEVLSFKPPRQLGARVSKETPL
# [4] = target: T3, Protein arginine N-methyltransferase 9 (Homo sapiens, UniProt Q6P2P2); assay: Selectivity interaction (Scintillation proximity assays) EUB0000255b PRMT9
# T3 sequence (Q6P2P2 whole entry): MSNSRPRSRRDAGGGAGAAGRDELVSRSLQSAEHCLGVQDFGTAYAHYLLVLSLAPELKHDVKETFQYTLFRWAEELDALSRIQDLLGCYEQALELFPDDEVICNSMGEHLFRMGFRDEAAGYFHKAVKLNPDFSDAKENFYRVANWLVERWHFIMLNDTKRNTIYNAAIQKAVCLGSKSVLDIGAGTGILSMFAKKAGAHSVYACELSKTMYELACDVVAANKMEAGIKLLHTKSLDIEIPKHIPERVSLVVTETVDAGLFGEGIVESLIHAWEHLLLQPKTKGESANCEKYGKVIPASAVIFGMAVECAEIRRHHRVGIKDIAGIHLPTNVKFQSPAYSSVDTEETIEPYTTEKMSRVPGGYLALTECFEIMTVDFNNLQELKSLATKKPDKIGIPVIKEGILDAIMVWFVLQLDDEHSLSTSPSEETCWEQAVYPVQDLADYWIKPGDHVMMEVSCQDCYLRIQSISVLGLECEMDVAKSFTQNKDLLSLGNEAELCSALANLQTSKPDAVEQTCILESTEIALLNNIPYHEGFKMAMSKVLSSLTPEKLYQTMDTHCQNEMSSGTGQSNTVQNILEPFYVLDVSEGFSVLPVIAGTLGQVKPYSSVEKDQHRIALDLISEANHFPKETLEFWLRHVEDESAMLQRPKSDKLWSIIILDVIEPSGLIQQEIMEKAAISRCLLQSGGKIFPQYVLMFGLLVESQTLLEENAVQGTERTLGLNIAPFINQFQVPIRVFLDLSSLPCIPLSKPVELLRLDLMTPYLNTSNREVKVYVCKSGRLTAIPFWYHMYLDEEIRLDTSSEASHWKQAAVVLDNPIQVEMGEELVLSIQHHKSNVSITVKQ
# [5] = target: Mitogen-activated protein kinase kinase kinase 10 (Homo sapiens) (UniProt Q02779); settings: at 10 µM
# [6] = target: Eukaryotic translation initiation factor 2-alpha kinase 1 (Homo sapiens) (UniProt Q9BQI3); assay: Selectivity interaction (KinomeScan (DiscoverX)) EUB0000092b EIF2AK1; settings: at 10 µM
# [7] = target: Mitogen-activated protein kinase 6 (Homo sapiens) (UniProt Q16659); assay: Selectivity interaction (KinomeScan (DiscoverX)) EUB0000092b MAPK6; settings: at 10 µM
# Mitogen-activated protein kinase 6 (Homo sapiens), sequence (Q16659 whole entry): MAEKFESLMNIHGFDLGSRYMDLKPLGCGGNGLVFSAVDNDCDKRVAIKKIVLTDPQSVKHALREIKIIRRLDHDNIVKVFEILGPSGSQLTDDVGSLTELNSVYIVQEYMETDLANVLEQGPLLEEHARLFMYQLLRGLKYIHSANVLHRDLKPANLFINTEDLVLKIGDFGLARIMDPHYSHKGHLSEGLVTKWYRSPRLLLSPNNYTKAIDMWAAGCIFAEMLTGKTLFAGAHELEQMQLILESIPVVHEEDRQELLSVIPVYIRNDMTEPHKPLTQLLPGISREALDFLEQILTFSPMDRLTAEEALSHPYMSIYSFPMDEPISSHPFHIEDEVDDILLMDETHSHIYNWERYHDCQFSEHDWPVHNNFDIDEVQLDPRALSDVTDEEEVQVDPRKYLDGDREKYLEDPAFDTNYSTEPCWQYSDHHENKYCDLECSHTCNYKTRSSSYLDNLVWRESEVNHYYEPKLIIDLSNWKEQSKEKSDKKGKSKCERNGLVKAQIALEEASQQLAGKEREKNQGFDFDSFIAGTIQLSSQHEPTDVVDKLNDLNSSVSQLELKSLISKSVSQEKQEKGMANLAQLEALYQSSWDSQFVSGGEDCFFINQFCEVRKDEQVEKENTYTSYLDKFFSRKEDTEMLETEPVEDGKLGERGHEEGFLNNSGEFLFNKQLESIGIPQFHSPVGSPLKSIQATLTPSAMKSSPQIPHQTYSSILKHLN
# Eukaryotic translation initiation factor 2-alpha kinase 1 (Homo sapiens), sequence (Q9BQI3 whole entry): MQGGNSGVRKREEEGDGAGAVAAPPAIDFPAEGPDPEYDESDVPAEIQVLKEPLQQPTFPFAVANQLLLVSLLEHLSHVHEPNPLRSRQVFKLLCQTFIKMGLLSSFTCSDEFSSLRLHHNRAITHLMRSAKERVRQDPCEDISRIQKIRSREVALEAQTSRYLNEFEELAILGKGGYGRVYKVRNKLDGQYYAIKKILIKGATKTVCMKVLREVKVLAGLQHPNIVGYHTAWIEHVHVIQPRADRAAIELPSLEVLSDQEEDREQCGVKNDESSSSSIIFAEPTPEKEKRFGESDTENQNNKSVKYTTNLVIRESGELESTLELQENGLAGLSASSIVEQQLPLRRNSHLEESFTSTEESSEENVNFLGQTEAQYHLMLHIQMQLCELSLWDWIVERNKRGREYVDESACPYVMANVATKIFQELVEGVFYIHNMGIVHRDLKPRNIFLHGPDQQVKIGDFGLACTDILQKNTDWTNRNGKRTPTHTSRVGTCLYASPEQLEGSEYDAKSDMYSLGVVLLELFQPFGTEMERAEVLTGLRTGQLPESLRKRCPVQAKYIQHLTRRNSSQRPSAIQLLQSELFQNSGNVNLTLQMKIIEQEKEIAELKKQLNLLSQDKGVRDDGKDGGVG
# Cyclin-dependent kinase 5/CDK5 activator 1 (Homo sapiens), sequence (Q00535 whole entry): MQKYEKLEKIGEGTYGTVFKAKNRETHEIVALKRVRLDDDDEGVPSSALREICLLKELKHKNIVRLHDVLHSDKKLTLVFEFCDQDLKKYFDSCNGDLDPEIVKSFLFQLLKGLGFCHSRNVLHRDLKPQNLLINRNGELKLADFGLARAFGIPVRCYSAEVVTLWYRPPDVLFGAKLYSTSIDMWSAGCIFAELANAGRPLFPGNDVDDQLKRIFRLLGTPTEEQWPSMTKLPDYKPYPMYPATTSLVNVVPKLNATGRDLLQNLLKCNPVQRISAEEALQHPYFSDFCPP
# Cyclin-dependent kinase 5/CDK5 activator 1 (Homo sapiens), sequence (Q15078 99-307 partner limits assumed): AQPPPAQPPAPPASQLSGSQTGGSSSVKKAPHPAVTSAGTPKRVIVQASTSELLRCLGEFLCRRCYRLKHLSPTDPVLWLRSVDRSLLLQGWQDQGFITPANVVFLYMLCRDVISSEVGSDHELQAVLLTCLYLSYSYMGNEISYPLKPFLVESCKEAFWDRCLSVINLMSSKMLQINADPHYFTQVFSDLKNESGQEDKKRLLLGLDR
# Mitogen-activated protein kinase kinase kinase 10 (Homo sapiens), sequence (Q02779 whole entry, looked up): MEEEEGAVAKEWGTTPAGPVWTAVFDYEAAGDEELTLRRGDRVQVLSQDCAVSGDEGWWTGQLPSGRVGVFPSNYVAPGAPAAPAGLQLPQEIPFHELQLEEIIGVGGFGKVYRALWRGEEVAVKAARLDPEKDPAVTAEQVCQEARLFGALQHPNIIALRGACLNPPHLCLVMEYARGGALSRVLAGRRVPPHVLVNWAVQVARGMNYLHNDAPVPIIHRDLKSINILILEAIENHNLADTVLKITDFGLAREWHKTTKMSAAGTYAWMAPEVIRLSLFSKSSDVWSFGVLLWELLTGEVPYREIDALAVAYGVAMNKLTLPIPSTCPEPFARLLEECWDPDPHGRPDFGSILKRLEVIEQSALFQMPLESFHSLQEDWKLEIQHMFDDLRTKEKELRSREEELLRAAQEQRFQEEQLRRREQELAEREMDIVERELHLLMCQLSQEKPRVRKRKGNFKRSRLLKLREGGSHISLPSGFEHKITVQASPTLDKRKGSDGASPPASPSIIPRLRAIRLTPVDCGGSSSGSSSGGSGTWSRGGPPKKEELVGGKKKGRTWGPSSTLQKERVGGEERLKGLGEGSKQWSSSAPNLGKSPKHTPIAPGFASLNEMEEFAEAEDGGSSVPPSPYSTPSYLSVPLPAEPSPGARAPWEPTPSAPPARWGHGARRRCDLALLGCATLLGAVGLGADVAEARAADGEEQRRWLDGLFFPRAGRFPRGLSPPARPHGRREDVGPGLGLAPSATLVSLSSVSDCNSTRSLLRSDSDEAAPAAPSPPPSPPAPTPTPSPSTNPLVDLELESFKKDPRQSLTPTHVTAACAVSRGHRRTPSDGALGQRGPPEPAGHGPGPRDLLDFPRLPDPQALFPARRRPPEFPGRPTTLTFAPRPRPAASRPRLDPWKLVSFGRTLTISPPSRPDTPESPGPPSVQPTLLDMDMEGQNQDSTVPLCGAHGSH
smiles,measurement,setting,value
COCC(=O)NC/C=C/c1ccc2ncnc(Nc3ccc(Oc4ccc(C)nc4)c(C)c3)c2c1 [CP-724714],% of control,[1],79%
Cn1cc(-n2cnc3c(NCc4nc5cc(Cl)c(Cl)cc5[nH]4)nc(N4CCOCC4)nc32)cn1,% of control,[2],5.78%
CC(=O)Nc1cccc(-n2c(=O)n(C3CC3)c(=O)c3c(Nc4ccc(I)cc4F)n(C)c(=O)c(C)c32)c1,% of control,[3],97%
COCCN1CCC(c2cc(CN(C)C(=O)c3cccc(Oc4ccccc4)c3)ccn2)CC1,IC50,[4],> 10 µM
CCN(CC)CCCCNc1ncc2cc(-c3cc(OC)cc(OC)c3)c(NC(=O)NC(C)(C)C)nc2n1,% of control,[5],100%
CCC(=O)N1CCN(c2ccc(-n3c(=O)ccc4cnc5ccc(-c6cnc7ccccc7c6)cc5c43)cc2C(F)(F)F)CC1,% of control,[6],57%
same,% of control,[7],1.8%
